Results as given in patent US20240366809A1, “INHIBITOR OF PROSTATE SPECIFIC MEMBRANE ANTIGEN AND PHARMACEUTICAL USE THEREOF” (TIANJIN HENGRUI MEDICINE CO., LTD., priority 2021, published 2024).

System: human organs
Experiment: Absorbed doses of radiation, estimates for human organs (OLINDA software)
Details: for radiation dose estimate, Adrenals: human organ: Adrenals; for radiation dose estimate, Brain: human organ: Brain; for radiation dose estimate, Esophagus: human organ: Esophagus; for radiation dose estimate, Eyes: human organ: Eyes; for radiation dose estimate, Gallbladder Wall: human organ: Gallbladder Wall; for radiation dose estimate, Heart Wall: human organ: Heart Wall; for radiation dose estimate, Kidneys: human organ: Kidneys; for radiation dose estimate, Left colon: human organ: Left colon; for radiation dose estimate, Liver: human organ: Liver; for radiation dose estimate, Lungs: human organ: Lungs; for radiation dose estimate, Osteogenic Cells: human organ: Osteogenic Cells; for radiation dose estimate, Pancreas: human organ: Pancreas; for radiation dose estimate, Prostate: human organ: Prostate; for radiation dose estimate, Rectum: human organ: Rectum; for radiation dose estimate, Red Marrow: human organ: Red Marrow; for radiation dose estimate, Right colon: human organ: Right colon; for radiation dose estimate, Salivary Glands: human organ: Salivary Glands; for radiation dose estimate, Small Intestine: human organ: Small Intestine; for radiation dose estimate, Spleen: human organ: Spleen; for radiation dose estimate, Stomach Wall: human organ: Stomach Wall; for radiation dose estimate, Testes: human organ: Testes; for radiation dose estimate, Thymus: human organ: Thymus; for radiation dose estimate, Thyroid: human organ: Thyroid; for radiation dose estimate, Urinary Bladder Wall: human organ: Urinary Bladder Wall; for radiation dose estimate, Effective Dose: human: Effective Dose; for radiation dose estimate, Total Body: human: Total Body
Protocol: The AUC of drug metabolisms was calculated from the biodistribution (Bio-D) data and imported into the OLINDA software to generate doses of radiation absorbed by all the organs.

| SMILES | radiation dose estimate, Adrenals [mSv/MBq] | radiation dose estimate, Brain [mSv/MBq] | radiation dose estimate, Esophagus [mSv/MBq] | radiation dose estimate, Eyes [mSv/MBq] | radiation dose estimate, Gallbladder Wall [mSv/MBq] | radiation dose estimate, Heart Wall [mSv/MBq] | radiation dose estimate, Kidneys [mSv/MBq] | radiation dose estimate, Left colon [mSv/MBq] | radiation dose estimate, Liver [mSv/MBq] | radiation dose estimate, Lungs [mSv/MBq] | radiation dose estimate, Osteogenic Cells [mSv/MBq] | radiation dose estimate, Pancreas [mSv/MBq] | radiation dose estimate, Prostate [mSv/MBq] | radiation dose estimate, Rectum [mSv/MBq] | radiation dose estimate, Red Marrow [mSv/MBq] | radiation dose estimate, Right colon [mSv/MBq] | radiation dose estimate, Salivary Glands [mSv/MBq] | radiation dose estimate, Small Intestine [mSv/MBq] | radiation dose estimate, Spleen [mSv/MBq] | radiation dose estimate, Stomach Wall [mSv/MBq] | other results |
| --- | --- | --- | --- | --- | --- | --- | --- | --- | --- | --- | --- | --- | --- | --- | --- | --- | --- | --- | --- | --- | --- |
| O=C([O-])CN1CCN(CC(=O)[O-])CCN(CC(=O)NCC2CCC(C(=O)N[C@@H](Cc3ccc4ccccc4c3)C(=O)NCCCC[C@H](NC(=O)N[C@@H](CCC(=O)O)C(=O)O)C(=O)O)CC2)CCN(CC(=O)[O-])CC1.[177Lu+3] (some centres unmarked) [^177Lu-PSMA-617, reference compound] | 2.43E−02 | 1.38E−01 | 3.39E−03 | 2.74E−03 | 3.58E−03 | 2.41E−02 | 1.47E+00 | 4.60E−03 | 3.15E−02 | 1.12E−01 | 5.58E−01 | 4.36E−03 | 1.23E−03 | 1.49E−03 | 3.80E−03 | 2.74E−03 | 2.18E−03 | 4.48E−02 | 9.86E−01 | 8.22E−03 | radiation dose estimate, Testes: 5.04E−04 mSv/MBq; radiation dose estimate, Thymus: 2.04E−03 mSv/MBq; radiation dose estimate, Thyroid: 1.83E−03 mSv/MBq; radiation dose estimate, Urinary Bladder Wall: 7.53E−04 mSv/MBq; radiation dose estimate, Effective Dose: 4.74E−02 mSv/MBq; radiation dose estimate, Total Body: 2.91E−02 mSv/MBq |
| O=C([O-])CN1CCN(CC(=O)[O-])CCN(CC(=O)N2CCO[C@]3(CC[C@H](C(=O)N[C@@H](Cc4ccc5ccccc5c4)C(=O)NCCCC[C@H](NC(=O)N[C@@H](CCC(=O)O)C(=O)O)C(=O)O)CC3)C2)CCN(CC(=O)[O-])CC1.[177Lu+3] [^177Lu-v] | 1.74E−02 | 6.03E−02 | 4.33E−03 | 2.21E−03 | 4.67E−03 | 2.72E−02 | 8.83E−01 | 4.81E−03 | 7.43E−02 | 1.95E−01 | 6.52E−01 | 5.14E−03 | 1.29E−03 | 1.91E−03 | 4.16E−03 | 3.03E−03 | 1.67E−03 | 1.73E−01 | 6.84E−01 | 2.73E−02 | absorbed dose of radiation, comparison with the labeled PSMA-617 in words (from Table 5): smaller than that resulting from ^177Lu-PSMA-617; radiation dose estimate, Testes: 5.84E−04 mSv/MBq; radiation dose estimate, Thymus: 2.83E−03 mSv/MBq; radiation dose estimate, Thyroid: 2.41E−03 mSv/MBq; radiation dose estimate, Urinary Bladder Wall: 9.14E−04 mSv/MBq; radiation dose estimate, Effective Dose: 5.46E−02 mSv/MBq; radiation dose estimate, Total Body: 3.07E−02 mSv/MBq |
